Measured values published in patent US9249147B2, “Tyrosine kinase inhibitors” (CHEMBRIDGE CORPORATION, priority 2008, dated 2016).
“And” between values parts separate entries of the source, which are not always exact repeats. Identical values can stand only once.

Columns and labels:
[1] = molecular target: ALK (Homo sapiens, UniProt Q9UM73); test: Biochemical ALK inhibition (ADP Hunter, radiometric, Z-lyte); parameters: purchased DiscoveRx (ADP Hunter kit); Upstate/Millipore; Invitrogen
Description: Compound (II) (also labeled as CRL241 in some of the figures) was tested using several diverse assay technologies utilizing common assay readouts such as ADP generation detection and FRET or radiolabel-based measurement of phosphate incorporation in the substrate.
Biochemical potency of ALK inhibition (IC50) for compound (II) was determined in multiple experiments using a commercial ADP detection assay (ADP Hunter, DiscoveRx), and in radiometric (Upstate/Millipore) or FRET based fluorimetric (Z-lyte, Invitrogen) assays.

[2] = system: Karpas299; test: Cell proliferation inhibition, ALCL line Karpas299; format: cell-based; conditions: Homo sapiens, KARPAS-299; Example 4, most sensitive cell lines; read-out: Proliferation IC50 Karpas299
How it was run: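 NPM-ALK-positive Karpas-299 cells (2×10^4 per well) were treated with compound at final concentrations of 25 to 0.78125 μM, with DMSO-only controls. Proliferation and viability were read colorimetrically by XTT reduction to formazan.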

[3] = system: UConn; test: Cell proliferation inhibition, ALCL line UConn; format: cell-based; conditions: Example 4, least sensitive line; read-out: Proliferation IC50 UConn
Description: (§1) Cell proliferation inhibition assays were run for compound (II) with the five target NPM-ALK-dependent ALCL cell lines (Karpas 299, SuDHL-1, JB6, SupM2, UConn) and 12 unrelated cell lines (HEK293, CHO-K1, MCF7, HepG2, H292, H520, H1581, H596, H522, CHA-GO-K1, UMC-11, SK-MES1). […] The pronounced target cell-killing effect is also observed (molecular mechanisms to be determined).

[4] = molecular target: RET (Homo sapiens, UniProt P07949); test: Invitrogen SelectScreen Z-lyte kinase assay, Ret; format: biochemical; parameters: purchased Invitrogen (SelectScreen service); conditions: 100 μM ATP
Description: To evaluate selectivity versus other kinases, inhibition of various kinases by compound (II) was determined. In particular, IC50s for TrkA, Jak2, Axl tyrosine kinases were determined using ADP Hunter (DiscoverX) kinase assay. Single point profiling of compound (II) on 50 human tyrosine kinases and 10 Ser-Thr kinases was done at Upstate/Millipore by radiometric assay. […] The subset of the 520 kinases in the human kinome that were tested was strategically selected to cover most of the therapeutically relevant tyrosine kinases and to represent major branches of serine-threonine kinases.
Compound (II) was a multitargeted tyrosine kinase (TK) inhibitor with a distinct pattern of inhibition focused on ALK, Trk family, Ros and Ret kinases. Invitrogen SelectScreen (Z-lyte assay) produced the following IC5O values for this set of kinases: ALK 9.75 nM, TrkA 1.5 nM, TrkB 1.4 nM, TrkC 1.8 nM, Ret 7.1 nM, Ros 1.8 nM (all measured at 100 μM ATP). […] About 70% of the 50 TKs tested have selectivity in excess of 50-fold for ALK and higher for Ret, Ros and Trk family members.

[5] = Solubility in acidic aqueous formulation vehicle; format: physicochemical; conditions: pH 4-6
Description: The solubility of compound (II) in aqueous buffers has been tested at Cerep, as part of ADMET Study 13170. […] Such aqueous solubility was at least as good as or higher than a typical one for a small molecule, ATP-competitive kinase inhibitor. The compound has much higher aqueous solubility at lower pH. 20-50 mM acetic or tartaric acid (pH 4-6) was used to dissolve the compound at concentrations up to 5 mg/ml (or ˜10 mM); this type of formulation was used for our animal toxicity and PK studies. Compound (II) was also well soluble in such organic solvents as DMSO or N-methyl pyrrolidone and can be subsequently solubilized in aqueous formulations containing 2% Tween 80 or 5-20% Solutol HS15.

[6] = Caco-2 (TC7) A-B Permeability test (pH 6.5/7.4); conditions: human
[7] = molecular target: T1, CYP2C9 (Homo sapiens, UniProt P11712); test: CYP2C9 Inhibition (recombinant, MFC substrate); format: in vitro ADME
T1 construct: purchased Cerep (contract assay, ADMET Study 13170)

[8] = Metabolic Stability (liver micros., human), Cerep Study 13170; format: in vitro ADME; conditions: 1.0E−06 M, human liver microsomes
[9] = system: JB6; test: Cell proliferation inhibition, ALCL line JB6; format: cell-based; conditions: Example 4, most sensitive cell lines, read-out: Proliferation IC50 JB6
Description: as §1

T1 sequence (P11712 whole entry): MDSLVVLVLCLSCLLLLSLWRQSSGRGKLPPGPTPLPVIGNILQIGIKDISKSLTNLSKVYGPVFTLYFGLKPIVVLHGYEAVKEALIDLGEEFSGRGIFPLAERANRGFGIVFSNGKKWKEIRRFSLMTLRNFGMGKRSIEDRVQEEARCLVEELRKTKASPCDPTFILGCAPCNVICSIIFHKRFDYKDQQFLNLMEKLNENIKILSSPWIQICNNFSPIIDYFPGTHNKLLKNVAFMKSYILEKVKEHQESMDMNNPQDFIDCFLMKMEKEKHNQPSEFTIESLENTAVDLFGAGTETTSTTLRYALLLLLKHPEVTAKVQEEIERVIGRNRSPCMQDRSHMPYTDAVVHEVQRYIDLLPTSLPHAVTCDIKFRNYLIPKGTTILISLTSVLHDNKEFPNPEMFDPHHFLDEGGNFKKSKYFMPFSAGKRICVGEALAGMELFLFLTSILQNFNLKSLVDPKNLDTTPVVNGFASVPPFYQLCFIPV
ALK, sequence (Q9UM73 19-1620): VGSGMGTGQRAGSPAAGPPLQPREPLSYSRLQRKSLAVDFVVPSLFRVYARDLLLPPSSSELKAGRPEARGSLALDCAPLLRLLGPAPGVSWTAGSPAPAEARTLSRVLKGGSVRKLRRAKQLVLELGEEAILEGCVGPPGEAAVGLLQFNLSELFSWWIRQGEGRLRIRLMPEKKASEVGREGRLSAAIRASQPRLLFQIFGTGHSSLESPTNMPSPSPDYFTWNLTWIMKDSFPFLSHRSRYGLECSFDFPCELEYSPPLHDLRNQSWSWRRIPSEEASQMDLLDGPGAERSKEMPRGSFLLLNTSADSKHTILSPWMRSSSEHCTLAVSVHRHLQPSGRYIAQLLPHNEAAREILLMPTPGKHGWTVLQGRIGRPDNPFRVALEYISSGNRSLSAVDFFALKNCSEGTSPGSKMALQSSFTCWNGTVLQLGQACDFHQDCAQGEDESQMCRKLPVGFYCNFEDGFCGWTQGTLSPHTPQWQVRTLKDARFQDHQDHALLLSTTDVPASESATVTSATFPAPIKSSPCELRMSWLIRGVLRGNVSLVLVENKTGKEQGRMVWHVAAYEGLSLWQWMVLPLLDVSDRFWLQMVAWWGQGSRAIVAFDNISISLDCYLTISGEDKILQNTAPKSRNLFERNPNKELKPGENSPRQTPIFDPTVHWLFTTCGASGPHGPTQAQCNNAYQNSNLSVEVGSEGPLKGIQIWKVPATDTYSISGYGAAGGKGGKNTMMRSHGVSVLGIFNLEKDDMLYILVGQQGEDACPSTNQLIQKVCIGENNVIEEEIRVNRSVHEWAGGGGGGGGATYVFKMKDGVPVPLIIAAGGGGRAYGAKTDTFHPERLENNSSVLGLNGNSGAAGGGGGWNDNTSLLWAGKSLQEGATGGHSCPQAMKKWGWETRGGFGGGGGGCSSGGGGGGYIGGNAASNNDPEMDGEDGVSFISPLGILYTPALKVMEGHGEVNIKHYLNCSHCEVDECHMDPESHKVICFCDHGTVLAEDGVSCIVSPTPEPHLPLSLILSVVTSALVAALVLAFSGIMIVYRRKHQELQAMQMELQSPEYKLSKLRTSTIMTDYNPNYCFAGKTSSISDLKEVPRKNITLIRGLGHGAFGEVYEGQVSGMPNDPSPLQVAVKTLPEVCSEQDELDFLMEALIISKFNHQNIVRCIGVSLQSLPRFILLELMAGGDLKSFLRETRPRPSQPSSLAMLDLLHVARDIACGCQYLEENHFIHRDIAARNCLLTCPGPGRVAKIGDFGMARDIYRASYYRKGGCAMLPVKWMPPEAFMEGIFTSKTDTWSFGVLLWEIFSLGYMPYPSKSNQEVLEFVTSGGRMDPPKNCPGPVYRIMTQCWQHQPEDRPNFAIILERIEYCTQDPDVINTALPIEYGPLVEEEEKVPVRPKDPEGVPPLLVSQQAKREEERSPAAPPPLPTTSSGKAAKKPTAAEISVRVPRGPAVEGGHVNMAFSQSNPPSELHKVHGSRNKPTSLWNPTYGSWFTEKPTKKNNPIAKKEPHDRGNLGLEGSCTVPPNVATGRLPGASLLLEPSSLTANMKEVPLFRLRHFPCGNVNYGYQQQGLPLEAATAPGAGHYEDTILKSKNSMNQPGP
RET, sequence (P07949 29-1114): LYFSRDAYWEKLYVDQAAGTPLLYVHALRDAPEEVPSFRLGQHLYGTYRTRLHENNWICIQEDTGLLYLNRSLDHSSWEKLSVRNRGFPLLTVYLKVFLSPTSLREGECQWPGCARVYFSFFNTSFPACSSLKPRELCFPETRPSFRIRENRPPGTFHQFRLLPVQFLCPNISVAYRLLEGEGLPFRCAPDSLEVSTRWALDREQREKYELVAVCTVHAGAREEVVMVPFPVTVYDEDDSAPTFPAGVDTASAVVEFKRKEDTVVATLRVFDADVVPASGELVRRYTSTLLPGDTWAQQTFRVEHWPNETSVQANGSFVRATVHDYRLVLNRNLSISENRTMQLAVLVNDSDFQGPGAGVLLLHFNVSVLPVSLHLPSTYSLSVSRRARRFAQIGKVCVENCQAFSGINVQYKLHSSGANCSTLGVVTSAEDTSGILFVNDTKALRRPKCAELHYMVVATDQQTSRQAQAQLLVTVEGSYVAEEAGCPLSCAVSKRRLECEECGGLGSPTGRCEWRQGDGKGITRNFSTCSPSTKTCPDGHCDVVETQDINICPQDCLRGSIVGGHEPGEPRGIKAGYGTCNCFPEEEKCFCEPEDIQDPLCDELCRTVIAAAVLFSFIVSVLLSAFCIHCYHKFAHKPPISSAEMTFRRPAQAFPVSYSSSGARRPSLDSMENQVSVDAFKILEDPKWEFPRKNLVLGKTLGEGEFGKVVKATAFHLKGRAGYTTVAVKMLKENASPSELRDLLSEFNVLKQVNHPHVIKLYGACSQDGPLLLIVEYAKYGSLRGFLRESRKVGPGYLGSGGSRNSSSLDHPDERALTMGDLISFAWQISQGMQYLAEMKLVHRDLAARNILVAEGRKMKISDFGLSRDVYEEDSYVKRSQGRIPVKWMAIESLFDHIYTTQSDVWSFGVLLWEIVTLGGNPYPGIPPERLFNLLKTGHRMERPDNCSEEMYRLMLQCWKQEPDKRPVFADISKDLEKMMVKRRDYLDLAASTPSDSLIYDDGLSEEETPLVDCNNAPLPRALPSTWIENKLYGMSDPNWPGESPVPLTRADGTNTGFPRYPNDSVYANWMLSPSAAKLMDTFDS

Cc1ccc(F)cc1C[C@H](C)Nc1cc[nH]c(=O)c1-c1nc2cc3c(cc2[nH]1)C(=O)N(CCN1CCCC1)C3 [compound (II)]
IC50 ([1]; ADP Hunter, radiometric and Z-lyte assays, 100 or 200 μM ATP): 9 to 11 nM | Selectivity for ALK versus the related IR and IGF1R ([1]; radiometric assay (Upstate/Millipore)): 10-15 fold | IC50 [2]: 5 to 10 nM | IC50 [3]: 30 nM | IC50 [4]: 7.1 nM | Concentration dissolved in 20-50 mM acetic or tartaric acid [5]: up to 5 mg/ml | Papp A→B at 10 µM ([6]; Caco-2, pH 6.5, Caco-2 (TC7) A-B permeability coefficient, pH 6.5/7.4, 10 μM compound): 0.4 ×10⁻⁶ cm/s | recovery at 10 µM ([6]; Caco-2, pH 6.5, Caco-2 recovery, pH 6.5/7.4, 10 μM compound): 49% | Papp A→B at 10 µM ([6]; Caco-2, pH 6.5, Mean Permeability, A-B Permeability (TC7, pH 6.5/7.4), test concentration 1.0E−05 M, mean of n = 2): 0.4 ×10⁻⁶ cm/s | recovery at 10 µM ([6]; Caco-2, pH 6.5, Mean Recovery, A-B Permeability (TC7, pH 6.5/7.4), test concentration 1.0E−05 M, mean of n = 2): 49% | Papp A→B at 10 µM ([6]; Caco-2, pH 6.5, Permeability 1st, A-B Permeability (TC7, pH 6.5/7.4), test concentration 1.0E−05 M, 1st replicate): 0.41 ×10⁻⁶ cm/s | Papp A→B at 10 µM ([6]; Caco-2, pH 6.5, Permeability 2nd, A-B Permeability (TC7, pH 6.5/7.4), test concentration 1.0E−05 M, 2nd replicate): 0.44 ×10⁻⁶ cm/s | recovery at 10 µM ([6]; Caco-2, pH 6.5, Present Recovery 1st, A-B Permeability (TC7, pH 6.5/7.4), test concentration 1.0E−05 M, 1st replicate): 50% | recovery at 10 µM ([6]; Caco-2, pH 6.5, Present Recovery 2nd, A-B Permeability (TC7, pH 6.5/7.4), test concentration 1.0E−05 M, 2nd replicate): 47% | activity at 1 µM ([7]; human, recombinant CYP2C9, probe MFC, 1.0E−06 M, Table 5B individual results, read-out: CYP2C9 % Inhibition of Control Values, 1st/2nd/3rd): 75.8% | activity at 5 µM ([7]; human, recombinant CYP2C9, probe MFC, 5.0E−06 M, Table 5B individual results, read-out: CYP2C9 % Inhibition of Control Values, 1st/2nd/3rd): 63.8% | inhibition at 1 µM ([7]; human, recombinant CYP2C9, probe MFC, 1.0E−06 M, read-out: CYP2C9 % Inhibition of Control Values): 20% | inhibition at 5 µM ([7]; human, recombinant CYP2C9, probe MFC, 5.0E−06 M, read-out: CYP2C9 % Inhibition of Control Values): 41% | IC50 ([7]; read-out: approximate IC50 CYP2C9): > 5000 nM | Mean Parent Remaining ([8]; 1 hr incubation): 73% | Parent Remaining Mean ([8]; Table 8B): 73% | Parent Remaining 1st/2nd ([8]; Table 8B, listed as CRL241): 70.3% and 76.4% | IC50 [9]: 5 to 10 nM
